Activity calls are given as the source filed them.
Assays:
[1] = tested on: Streptococcus sp. 'group A'; assay: growth inhibition of control SK(-) GAS strain, dose response, counter-screen for streptokinase expression inhibitor project, luminescence, kanamycin, BacTiterGlo, confirmation (AID 1900); type: functional, organism-based
Streptokinase A = biological target: T1, Streptokinase A (Streptococcus pyogenes serotype M1, UniProt P10520); assay: S. pyogenes streptokinase expression inhibitors, potency, dose response, plasminogen activation absorbance, OD405 (AID 1914); type: functional, Streptococcus pyogenes M1 GAS;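 note: secreted streptokinase activity via plasminogen activation per viability signal from cell pellet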
T1 sequence (P10520 whole entry): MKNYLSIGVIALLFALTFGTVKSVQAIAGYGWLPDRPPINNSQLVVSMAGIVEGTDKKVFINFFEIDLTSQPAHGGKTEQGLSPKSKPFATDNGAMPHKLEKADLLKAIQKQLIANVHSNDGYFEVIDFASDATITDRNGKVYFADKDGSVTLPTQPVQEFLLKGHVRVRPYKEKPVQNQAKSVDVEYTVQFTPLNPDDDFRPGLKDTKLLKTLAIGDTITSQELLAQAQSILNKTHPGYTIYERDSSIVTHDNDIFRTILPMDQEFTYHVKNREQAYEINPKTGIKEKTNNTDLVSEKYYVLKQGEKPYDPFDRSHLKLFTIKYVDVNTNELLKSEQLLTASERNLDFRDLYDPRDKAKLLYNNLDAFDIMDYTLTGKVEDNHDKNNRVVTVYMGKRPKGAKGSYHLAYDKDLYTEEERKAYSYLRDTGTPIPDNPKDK

Streptococcus = assay: Group A Streptococcus viability loss, dose response, counter-screen for streptokinase expression inhibitor project, luminescence, BacTiterGlo (AID 1915); type: functional, organism-based;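 note: potency for reduction of bacterial viability or growth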
[2] = inhibitors of intracellular T. cruzi replication, confirmation, NIH3T3 host cells, beta-gal luminescence (AID 2044); type: functional, cell-based;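 note: intracellular parasites grown in NIH/3T3 mouse fibroblasts as host cells; luminescent beta-galactosidase reporter signal from transgenic T. cruzi replicating inside host cells; inhibitors lower the luminescence signal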
[3] = cytotoxicity toward NIH3T3 fibroblasts, dose response, counter-screen, cell-based, ATP luminescence, mouse fibroblasts (AID 2010); type: functional;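 note: cells exposed to compound for about 90 hours before reading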
Cytochrome P450 2D6 = Cytochrome P450 2D6 (Homo sapiens, UniProt P10635);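 note: CYP2D6 member of a cytochrome P450 panel assay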
Cytochrome P450 1A2 = biological target: T2, Cytochrome P450 1A2 (Homo sapiens, UniProt P05177);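 note: PubChem cytochrome P450 panel assay, CYP1A2 panel member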
T2 sequence (P05177 whole entry): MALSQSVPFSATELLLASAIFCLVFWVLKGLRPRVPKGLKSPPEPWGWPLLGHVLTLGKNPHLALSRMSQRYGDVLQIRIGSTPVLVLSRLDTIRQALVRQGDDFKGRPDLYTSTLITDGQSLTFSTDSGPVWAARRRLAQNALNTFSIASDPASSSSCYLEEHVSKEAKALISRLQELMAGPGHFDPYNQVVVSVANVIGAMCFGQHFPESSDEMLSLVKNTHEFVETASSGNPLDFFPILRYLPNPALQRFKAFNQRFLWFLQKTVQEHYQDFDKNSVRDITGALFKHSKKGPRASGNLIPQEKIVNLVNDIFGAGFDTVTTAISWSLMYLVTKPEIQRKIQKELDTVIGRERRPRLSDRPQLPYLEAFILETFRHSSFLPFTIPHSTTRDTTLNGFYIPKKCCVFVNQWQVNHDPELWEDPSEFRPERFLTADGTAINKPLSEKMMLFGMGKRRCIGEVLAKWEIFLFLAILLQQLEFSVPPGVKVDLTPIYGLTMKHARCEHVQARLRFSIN

[4] = Luminescence Cell-Based Dose Retest to Confirm Inhibitors of Cancer Stem Cells. [Related pubchem assays (depositor defined):AID2717, AID2721]; type: functional; settings: Homo sapiens
Cytochrome P450 2C19 = Cytochrome P450 2C19 (Homo sapiens, UniProt P33261); assay: Cytochrome panel assay with activity outcomes. Panel member name: p450-cyp2c19 Compounds with AC50 equal or less than 10 uM are considered active; type: functional; settings: read-out: AC50
Cytochrome P450 2C9 = Cytochrome P450 2C9 (Homo sapiens, UniProt P11712)
Cytochrome P450 3A4 = Cytochrome P450 3A4 (Homo sapiens, UniProt P08684);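 note: CYP3A4 tested as one member of a cytochrome P450 panel screen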
INS1 = assay: beta cell apoptosis inhibitors, cytokine rescue, dose response, luminescence, retest (AID 449756); type: functional, cell-based; settings: Rattus norvegicus;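 note: cell death triggered by IL-1 beta plus TNF-alpha plus IFN-gamma mixture; protective hits raise ATP signal compared with cytokine alone wells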
[5] = inhibitors of firefly luciferase expression or activity, dose response, H4 neuroglioma cells, luminescence (AID 1990); type: functional, cell-based
[6] = Luminescence Cell-Based Dose Response HTS to Identify Inhibitors of 5'UTR Stem-Loop Driven Prion Protein mRNA Translation in H4 Neuroglioblastoma Cells. [Related pubchem assays: 1827 (Project Summary), 1813 (Primary HTS)]; type: functional
[7] = inhibitors of SNCA 5'UTR-driven reporter translation, confirmation, H4 neuroglioma cells, luminescence (AID 1988); type: functional, cell-based

Cytochrome P450 2D6, sequence (P10635 whole entry): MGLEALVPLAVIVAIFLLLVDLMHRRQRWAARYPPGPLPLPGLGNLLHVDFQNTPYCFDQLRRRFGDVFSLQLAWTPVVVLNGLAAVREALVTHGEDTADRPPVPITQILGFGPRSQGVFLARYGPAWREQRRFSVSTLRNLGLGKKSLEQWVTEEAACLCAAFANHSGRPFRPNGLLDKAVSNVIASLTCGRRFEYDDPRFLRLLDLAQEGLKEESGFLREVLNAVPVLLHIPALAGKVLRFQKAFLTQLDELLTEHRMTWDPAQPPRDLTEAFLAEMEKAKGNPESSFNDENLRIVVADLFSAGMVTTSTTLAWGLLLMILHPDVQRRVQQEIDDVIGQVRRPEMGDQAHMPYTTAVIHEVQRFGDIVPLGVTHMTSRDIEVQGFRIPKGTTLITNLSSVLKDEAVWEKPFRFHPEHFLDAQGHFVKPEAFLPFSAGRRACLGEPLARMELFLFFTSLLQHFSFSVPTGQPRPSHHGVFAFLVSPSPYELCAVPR
Cytochrome P450 3A4, sequence (P08684 whole entry): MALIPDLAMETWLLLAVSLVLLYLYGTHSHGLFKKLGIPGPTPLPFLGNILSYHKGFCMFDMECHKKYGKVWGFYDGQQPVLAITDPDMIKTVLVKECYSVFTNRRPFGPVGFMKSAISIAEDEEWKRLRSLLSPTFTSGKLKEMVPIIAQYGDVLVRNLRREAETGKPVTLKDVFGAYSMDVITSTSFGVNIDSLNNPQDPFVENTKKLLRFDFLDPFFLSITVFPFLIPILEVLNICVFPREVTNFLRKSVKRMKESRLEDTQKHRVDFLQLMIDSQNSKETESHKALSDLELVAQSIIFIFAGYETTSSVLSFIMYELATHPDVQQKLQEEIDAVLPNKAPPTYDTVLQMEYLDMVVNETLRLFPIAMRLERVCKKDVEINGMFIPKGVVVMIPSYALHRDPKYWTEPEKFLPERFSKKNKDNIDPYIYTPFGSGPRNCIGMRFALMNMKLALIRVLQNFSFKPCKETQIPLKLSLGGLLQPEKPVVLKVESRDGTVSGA
Cytochrome P450 2C9, sequence (P11712 whole entry): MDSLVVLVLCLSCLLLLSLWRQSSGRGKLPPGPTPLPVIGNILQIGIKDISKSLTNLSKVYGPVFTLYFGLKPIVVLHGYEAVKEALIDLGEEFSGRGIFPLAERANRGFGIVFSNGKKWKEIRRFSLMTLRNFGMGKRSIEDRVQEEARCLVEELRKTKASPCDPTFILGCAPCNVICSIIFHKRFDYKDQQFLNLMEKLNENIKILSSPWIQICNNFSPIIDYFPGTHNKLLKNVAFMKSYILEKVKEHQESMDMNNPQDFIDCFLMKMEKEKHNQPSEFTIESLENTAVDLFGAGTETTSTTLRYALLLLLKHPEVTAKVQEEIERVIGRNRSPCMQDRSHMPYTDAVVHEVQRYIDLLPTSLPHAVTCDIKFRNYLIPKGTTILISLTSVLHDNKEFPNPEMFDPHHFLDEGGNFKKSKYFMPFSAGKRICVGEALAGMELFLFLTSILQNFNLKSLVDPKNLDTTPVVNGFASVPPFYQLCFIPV
Cytochrome P450 2C19, sequence (P33261 whole entry): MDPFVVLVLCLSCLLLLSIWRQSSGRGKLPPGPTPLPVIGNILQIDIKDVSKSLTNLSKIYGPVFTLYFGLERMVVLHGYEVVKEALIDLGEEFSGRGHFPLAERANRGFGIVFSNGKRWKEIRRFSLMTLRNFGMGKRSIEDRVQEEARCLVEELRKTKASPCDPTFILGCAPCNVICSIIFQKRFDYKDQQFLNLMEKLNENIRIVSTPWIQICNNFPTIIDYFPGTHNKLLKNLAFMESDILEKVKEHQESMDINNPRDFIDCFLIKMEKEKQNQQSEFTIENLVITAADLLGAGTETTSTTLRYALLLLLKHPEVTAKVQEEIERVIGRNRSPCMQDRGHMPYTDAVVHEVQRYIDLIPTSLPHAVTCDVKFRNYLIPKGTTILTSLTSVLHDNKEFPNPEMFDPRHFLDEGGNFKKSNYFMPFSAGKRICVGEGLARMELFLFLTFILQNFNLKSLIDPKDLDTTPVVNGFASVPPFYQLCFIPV

Cc1ccccc1C(=O)N=c1nc(S)ss1
EC50 [1]: 2.81 µM (active) | EC50 (Streptokinase A): 2.04 µM (active) | EC50 (Streptococcus): 36.5 µM (active)

CCN(CC)CCN(C(=O)CCOc1ccccc1)c1nc2c(F)cc(F)cc2s1
EC50 [2]: 1.02 µM (active) | EC50 [3]: > 60 µM (inconclusive)

CCCN(CCC)CCCNC(=O)c1ccc2c(c1)N(CC)C(=O)c1ccccc1[S+]2[O-] (centres undefined)
AC50 (Cytochrome P450 2D6): 22.4 µM (inconclusive) | AC50 (Cytochrome P450 1A2): 0.01 µM (inconclusive)

C=CCOc1c(Cl)cc(CNCCCN2CCOCC2)cc1OC
EC50 [2]: 0.125 µM (active) | EC50 [3]: 20.2 µM (active)

N#Cc1c(NC(=O)Cn2c(=O)oc3ccccc32)oc(-c2ccccc2)c1-c1ccccc1
AC50 [4]: 1.97 µM (active)

O=C(O)/C=C\C=C/c1ccc2c(c1)OCO2
AC50 (Cytochrome P450 1A2): 1.58 µM (inconclusive)

O=C(Nc1cccc(F)c1)N1CC[C@@]2(CCCN(S(=O)(=O)c3ccccc3)C2)C1
AC50 (Cytochrome P450 2D6): 39.8 µM (inconclusive) | AC50 (Cytochrome P450 1A2): 15.8 µM (inconclusive)

CCSc1nnc(C(N)Cc2ccccc2)o1 (centres undefined)
AC50 (Cytochrome P450 2C19): 28.2 µM (inconclusive) | AC50 (Cytochrome P450 2D6): 17.8 µM (inconclusive) | AC50 (Cytochrome P450 2C9): 2.24 µM (inconclusive)

c1ccc(COc2cccc(CNCc3cccnc3)c2)cc1
EC50 [2]: 8.34 µM (active) | EC50 [3]: > 30 µM (not active)

CCCN1CC[C@@H]2c3cc(O)ccc3CC[C@H]21
AC50 (Cytochrome P450 2D6): 31.6 µM (inconclusive)

Cc1nnc(NC(=O)c2ccc(S(=O)(=O)N3CC(C)CC(C)C3)cc2)o1 (centres undefined)
EC50 [1]: 7.28 µM (active) | EC50 (Streptokinase A): > 150 µM (not active) | EC50 (Streptococcus): 21 µM (active)

COc1cccc(C(=O)Nc2nnc(-c3cccs3)o2)c1
EC50 [1]: 9.25 µM (active) | EC50 (Streptokinase A): > 150 µM (not active) | EC50 (Streptococcus): 18.9 µM (active)

COc1ccc2[nH]c(C(O)(Cc3cccnc3)Cc3cccnc3)cc2c1
EC50 [2]: 2.42 µM (active) | EC50 [3]: > 60 µM (inconclusive)

Cc1sc2ncnc(SCC(=O)N3CCCC(C(F)(F)F)C3)c2c1C (centres undefined)
EC50 [1]: > 150 µM (not active) | EC50 (Streptokinase A): > 150 µM (not active) | EC50 (Streptococcus): > 150 µM (not active)

O=C(CC1NCCc2ccccc21)Nc1ccc(Oc2ccccc2)cc1 (centres undefined)
AC50 [4]: 7.35 µM (active)

COc1ccc(NC(=O)N2CCC3(CC2)CCN(S(=O)(=O)c2ccccc2)CC3)cc1
AC50 (Cytochrome P450 2D6): 25.1 µM (inconclusive) | AC50 (Cytochrome P450 1A2): 31.6 µM (inconclusive) | AC50 (Cytochrome P450 3A4): 20 µM (inconclusive)

CN1CCN(c2ncc3nc(-c4ccccc4)c(=O)n(C)c3n2)CC1
AC50 (Cytochrome P450 1A2): 15.8 µM (inconclusive)

CN(C)CCCOC(=O)c1ccc(Cl)cc1Cl
EC50 [2]: 2.56 µM (active) | EC50 [3]: > 60 µM (not active)

COc1ccc(/C=C(/C#N)C(=O)Nc2cc(C)ccc2C)cc1C(=O)O
AC50 (Cytochrome P450 2D6): 25.1 µM (inconclusive)

CCCOc1c(Cl)cc(C(=O)Nc2ccc3c(c2)OCO3)cc1OCC
AC50 [4]: 2.39 µM (active)

COC(=O)c1ccc(NC(=O)c2cccnc2)cc1
AC50 (INS1): 5.28 µM (active)

Cc1ccc(NC(=O)Nc2cccc([N+](=O)[O-])c2)cc1F
EC50 [2]: 2.49 µM (active) | EC50 [3]: > 60 µM (not active) | AC50 (INS1): 6.65 µM (active)

Cc1cccc(NCCNc2cccc(C)c2)c1
AC50 (Cytochrome P450 2D6): 12.6 µM (inconclusive) | AC50 (Cytochrome P450 2C9): 17.8 µM (inconclusive)

Oc1c(Cl)cc(CN(Cc2cc(Cl)c(O)c(Cl)c2)C2CCCCC2)cc1Cl
AC50 (Cytochrome P450 2D6): 5.01 µM (inconclusive) | AC50 (Cytochrome P450 2C9): 3.98 µM (inconclusive)

COc1cccc2[nH]c3c(N4CC(C)CC(C)C4)ncnc3c12 (centres undefined)
EC50 [2]: 1.39 µM (active) | EC50 [3]: > 60 µM (not active) | AC50 (Cytochrome P450 3A4): 0.891 µM (inconclusive)

COC(=O)C1=C(C)N=C2SC(C)C(=O)N2C1/C=C/c1ccccc1 (centres undefined)
AC50 (Cytochrome P450 2D6): 28.2 µM (inconclusive)

Cc1cc(C)c(S(=O)(=O)c2ccc(Cl)cc2C)c(Cl)n1
EC50 [2]: 0.336 µM (active) | EC50 [3]: 35.9 µM (active)

CSc1cccc(NC(=S)N(Cc2ccccc2)Cc2cccnc2)c1
EC50 [2]: 0.653 µM (active) | EC50 [3]: > 60 µM (not active)

Cc1cc(C(C)(C)C)ccc1OCCCCN1CCCC1
AC50 [4]: 2.57 µM (active)

Cc1nn(Cc2ccc(Cl)cc2Cl)c(C)c1NC(=O)c1sc2ccccc2c1Cl
AC50 (Cytochrome P450 2C19): 22.4 µM (inconclusive) | AC50 (Cytochrome P450 1A2): 25.1 µM (inconclusive) | AC50 (Cytochrome P450 2C9): 1.78 µM (inconclusive)

O=C(NCCN1CCCC1)C1(S(=O)(=O)c2ccc(Cl)cc2)CC1
AC50 (Cytochrome P450 2C19): 25.1 µM (inconclusive) | AC50 (Cytochrome P450 2D6): 12.6 µM (inconclusive) | AC50 (Cytochrome P450 3A4): 39.8 µM (inconclusive)

COc1cc2c(cc1NC(=O)Nc1ccc(F)cc1)oc1ccccc12
EC50 [2]: 1.94 µM (active) | EC50 [3]: > 30 µM (not active)

COc1ccccc1C1(CC(=O)Nc2nccs2)CCOC(C(C)C)C1 (centres undefined)
AC50 (Cytochrome P450 2D6): 22.4 µM (inconclusive) | AC50 (Cytochrome P450 1A2): 5.62 µM (inconclusive)

COc1ccc2nc(O)c(CN(CCO)C(=O)c3cccs3)cc2c1
AC50 (Cytochrome P450 2C19): 31.6 µM (inconclusive) | AC50 (Cytochrome P450 1A2): 20 µM (inconclusive) | AC50 (Cytochrome P450 3A4): 15.8 µM (inconclusive)

O=c1cc(CNc2cc(C(F)(F)F)cc(C(F)(F)F)c2)nc2sccn12
EC50 [5]: 17.5 µM (active) | EC50 [6]: 39.2 µM (active) | EC50 [7]: > 120 µM (not active) | AC50 [4]: 1.99 µM (active)

Cc1ccc(O)c(C(=O)c2cc(C#N)c(=O)n(-c3c(C)n(C)n(-c4ccccc4)c3=O)c2)c1
AC50 (Cytochrome P450 2D6): 10 µM (inconclusive)

O=C(c1nc2ccc(Cl)cn2c1CN1CCC(CO)CC1)N1CCc2ccccc2C1
EC50 [1]: > 150 µM (not active) | EC50 (Streptokinase A): > 150 µM (not active) | EC50 (Streptococcus): > 150 µM (not active)

CCCC[N+]1(C)[C@@H]2CC(OC(=O)[C@@H](CO)c3ccccc3)C[C@H]1[C@H]1O[C@H]12 (some centres undefined)
AC50 (Cytochrome P450 2D6): 7.94 µM (inconclusive)

Nc1c(Cl)cc(-c2csc(N3CCCC3c3nc4cc(Cl)c(Cl)cc4n3CCOCCO)n2)cc1Cl (centres undefined)
EC50 [1]: > 150 µM (not active) | EC50 (Streptokinase A): > 150 µM (not active) | EC50 (Streptococcus): > 150 µM (not active)

O=P(c1ccccc1)(c1ccccc1)N1CC2(CC2)CC(O)(c2ccccc2)C1 (centres undefined)
AC50 (Cytochrome P450 2D6): 20 µM (inconclusive) | AC50 (Cytochrome P450 2C9): 39.8 µM (inconclusive)

c1cnc(N2CCC3(CCNCC3)CC2)nc1
AC50 (Cytochrome P450 2D6): 10 µM (inconclusive) | AC50 (Cytochrome P450 3A4): 20 µM (inconclusive)

C=CCC[C@H](Cc1ccc(F)cc1)C(=O)O[C@H](CNC(=O)[C@@H](CC=C)CC(=O)N(CCO)Cc1ccccc1)c1ccccc1
AC50 [4]: 7.34 µM (active)

Oc1cc(-c2ccc(N3CCCCC3)nc2)cc2cccnc12
AC50 (INS1): 3.18 µM (active)

Cn1cccc1C1C=C(c2ccc(C(C)(C)C)cc2)Nc2ncnn21 (centres undefined)
AC50 (INS1): 3.45 µM (active)

CCN(CC)C(=O)CSc1nnc(-c2ccncc2)n1N
AC50 (Cytochrome P450 2D6): 17.8 µM (inconclusive) | AC50 (Cytochrome P450 2C9): 31.6 µM (inconclusive)

CC(CNC(=O)c1ccc(OC2CCN(Cc3ccccn3)CC2)cc1)Oc1cccnc1 (centres undefined)
AC50 (INS1): 5.59 µM (active)

C[C@@H](CN1CCC(Cc2ccccc2)CC1)[C@@H](O)c1ccc(O)cc1
AC50 (Cytochrome P450 1A2): 39.8 µM (inconclusive)

O=c1[nH]c2cc(Cl)ccc2c(O)c1-c1cccc(Oc2ccccc2)c1
AC50 (Cytochrome P450 2C19): 31.6 µM (inconclusive) | AC50 (Cytochrome P450 1A2): 2.51 µM (inconclusive)

CCN(Cc1ccccc1)c1ccc(/C=N/NC(=S)NC(C)C)cc1
AC50 [4]: 31.1 µM (active)

Fc1cc(F)c(C2SCCN2C(=S)Nc2cccc(C(F)(F)F)c2)c(F)c1 (centres undefined)
EC50 [1]: 6.86 µM (active) | EC50 (Streptokinase A): 11.1 µM (active) | EC50 (Streptococcus): > 150 µM (not active)

NC(=O)OCC(COC(N)=O)c1ccccc1 [FELBAMATE]
AC50 (Cytochrome P450 1A2): 39.8 µM (inconclusive)
